In brackets after ≈: the same amount, converted by molar mass. Blank lines part the entries; values can stand above or below the molecule they belong to.
Key:
[1] = system: Trypanosoma cruzi; assay: Antitrypanosomal activity against trypomastigotes of Trypanosoma cruzi Tulahuen C2C4 containing lacZ gene in rat L6 cells after 4 days; format: functional, organism-based; conditions: L6, 96 h
[2] = system: Shigella boydii; assay: Antibacterial activity against Shigella boydii after 24 hrs by agar dilution method; format: functional
[3] = system: Shigella flexneri; assay: Antibacterial activity against Shigella flexneri after 24 hrs by agar dilution method; format: functional
[4] = system: Proteus mirabilis; assay: Antibacterial activity against Proteus mirabilis after 24 hrs by agar dilution method; format: functional
[5] = system: Proteus vulgaris; assay: Antibacterial activity against Proteus vulgaris after 24 hrs by agar dilution method; format: functional
[6] = system: Pseudomonas aeruginosa; assay: Antibacterial activity against Pseudomonas aeruginosa after 24 hrs by agar dilution method; format: functional
[7] = system: Morganella morganii; assay: Antibacterial activity against Morganella morganii after 24 hrs by agar dilution method; format: functional
[8] = system: Klebsiella pneumoniae; assay: Antibacterial activity against Klebsiella pneumoniae after 24 hrs by agar dilution method; format: functional
[9] = system: Salmonella enterica subsp. enterica; assay: Antibacterial activity against Salmonella enteritidis after 24 hrs by agar dilution method; format: functional, Salmonella enterica subsp. enterica serovar Enteritidis
[10] = system: Salmonella typhimurium; assay: Antibacterial activity against Salmonella Typhimurium after 24 hrs by agar dilution method; format: functional, Salmonella enterica subsp. enterica serovar Typhimurium; conditions: Salmonella enterica
[11] = system: Citrobacter freundii; assay: Antibacterial activity against Citrobacter freundii after 24 hrs by agar dilution method; format: functional
[12] = system: Aeromonas hydrophila; assay: Antibacterial activity against Aeromonas hydrophila after 24 hrs by agar dilution method; format: functional
[13] = system: Serratia marcescens; assay: Antibacterial activity against Serratia marcescens after 24 hrs by agar dilution method; format: functional
[14] = system: Staphylococcus aureus; assay: Antibacterial activity against Staphylococcus aureus after 24 hrs by agar dilution method; format: functional
[15] = system: Streptococcus pneumoniae; assay: Antibacterial activity against Streptococcus pneumoniae after 24 hrs by agar dilution method; format: functional
[16] = system: Staphylococcus; assay: Antibacterial activity against Staphylococcus albus after 24 hrs by agar dilution method; format: functional
[17] = system: Staphylococcus epidermidis; assay: Antibacterial activity against Staphylococcus epidermidis after 24 hrs by agar dilution method; format: functional
[18] = system: Enterococcus faecalis; assay: Antibacterial activity against Enterococcus faecalis after 24 hrs by agar dilution method; format: functional
[19] = system: Streptococcus; assay: Antibacterial activity against gamma-streptococcus after 24 hrs by agar dilution method; format: functional
[20] = system: Escherichia coli; assay: Antibacterial activity against Escherichia coli after 24 hrs by agar dilution method; format: functional
[21] = system: Shigella sonnei; assay: Antibacterial activity against Shigella sonnei after 24 hrs by agar dilution method; format: functional
[22] = system: Trypanosoma cruzi; assay: Antitrypanosomal activity against Trypanosoma cruzi amastigotes at 250 uM
[23] = system: Trypanosoma cruzi; assay: Antitrypanosomal activity against Trypanosoma cruzi DM28 epimastigotes at 200 ug/ml after 96 hrs; format: functional

IC50 [1]: 19.4 µg/mL (≈ 43.4 µM)
SMILES: CCn1cc(C(=O)O)c(=O)c2cc(F)c(Oc3ccc(C)cc3)c(Oc3ccc(C)cc3)c21

IC50 [1]: 12.7 µg/mL (≈ 22.8 µM)
SMILES: CCn1cc(C(=O)O)c(=O)c2cc(F)c(Oc3ccc(Cl)cc3Cl)c(Oc3ccc(Cl)cc3Cl)c21

IC50 [1]: 6.2 µg/mL (≈ 12.7 µM)
SMILES: CCn1cc(C(=O)O)c(=O)c2cc(F)c(Sc3ccc(F)cc3)c(Sc3ccc(F)cc3)c21

IC50 [1]: 19.3 µg/mL (≈ 42.7 µM)
SMILES: CCn1cc(C(=O)O)c(=O)c2cc(F)c(Sc3ccccc3)c(Sc3ccccc3)c21

MIC [2]: 6.25 µg/mL (≈ 17.4 µM)
MIC [3]: > 25 µg/mL
MIC [4]: 25 µg/mL (≈ 69.6 µM)
MIC [5]: > 25 µg/mL
MIC [6]: > 25 µg/mL
MIC [7]: 25 µg/mL (≈ 69.6 µM)
MIC [8]: 6.25 µg/mL (≈ 17.4 µM)
MIC [9]: 25 µg/mL (≈ 69.6 µM)
MIC [10]: 25 µg/mL (≈ 69.6 µM)
MIC [11]: 12.5 µg/mL (≈ 34.8 µM)
MIC [12]: 25 µg/mL (≈ 69.6 µM)
MIC [13]: > 25 µg/mL
IC50 [1]: 18.3 µg/mL (≈ 50.9 µM)
MIC [14]: 0.78 µg/mL (≈ 2.17 µM)
MIC [15]: 0.39 µg/mL (≈ 1.09 µM)
MIC [16]: 12.5 µg/mL (≈ 34.8 µM)
MIC [17]: 6.25 µg/mL (≈ 17.4 µM)
MIC [18]: > 25 µg/mL
MIC [19]: > 25 µg/mL
MIC [20]: 25 µg/mL (≈ 69.6 µM)
MIC [21]: 12.5 µg/mL (≈ 34.8 µM)
SMILES: CCn1cc(C(=O)O)c(=O)c2cc(F)c(Oc3ccc(C)cc3)c(F)c21

IC50 [1]: > 90 µg/mL
SMILES: CCn1cc(C(=O)O)c(=O)c2cc(Oc3ccc(C)cc3)c(Oc3ccc(C)cc3)c(Oc3ccc(C)cc3)c21

IC50 [1]: 17.8 µg/mL (≈ 38.4 µM)
SMILES: O=C(O)c1cn(C2CC2)c2c(Sc3ccccc3)c(Sc3ccccc3)c(F)cc2c1=O

IC50 [1]: > 90 µg/mL
SMILES: CCn1cc(C#N)c(=O)c2cc(F)c(Oc3ccccc3)c(Oc3ccccc3)c21

IC50 [1]: 6.2 µg/mL (≈ 13.9 µM)
SMILES: C=Cn1cc(C(=O)O)c(=O)c2cc(F)c(OCc3ccccc3)c(OCc3ccccc3)c21

IC50 [1]: 3.8 µg/mL (≈ 8.23 µM)
SMILES: CCn1cc(C(=O)OC)c(=O)c2cc(F)c(OCc3ccccc3)c(OCc3ccccc3)c21

IC50 [1]: > 90 µg/mL
SMILES: CCn1cc(C(=O)O)c(=O)c2cc(F)c(Oc3ccccc3)c(Oc3ccccc3)c21

IC50 [1]: 16.3 µg/mL (≈ 31.3 µM)
SMILES: CCn1cc(C(=O)O)c(=O)c2cc(F)c(Sc3ccc(Cl)cc3)c(Sc3ccc(Cl)cc3)c21

IC50 [1]: 0.83 µg/mL (≈ 3.19 µM)
SMILES: O=C(Cn1ccnc1[N+](=O)[O-])NCc1ccccc1 [BENZNIDAZOLE]

SMILES: O=C(O)c1cn(C2CC2)c2cc(N3CCNCC3)c(F)cc2c1=O [CIPROFLOXACIN]
Activity [22]: 26%

MIC [2]: 0.098 µg/mL (≈ 0.279 µM)
MIC [3]: 0.78 µg/mL (≈ 2.22 µM)
MIC [4]: 0.39 µg/mL (≈ 1.11 µM)
MIC [5]: 0.78 µg/mL (≈ 2.22 µM)
MIC [6]: 3.13 µg/mL (≈ 8.91 µM)
MIC [7]: 0.195 µg/mL (≈ 0.555 µM)
MIC [8]: 0.098 µg/mL (≈ 0.279 µM)
MIC [9]: 0.098 µg/mL (≈ 0.279 µM)
MIC [10]: 0.195 µg/mL (≈ 0.555 µM)
MIC [11]: 0.098 µg/mL (≈ 0.279 µM)
MIC [12]: 6.25 µg/mL (≈ 17.8 µM)
MIC [13]: 0.195 µg/mL (≈ 0.555 µM)
MIC [14]: 0.78 µg/mL (≈ 2.22 µM)
MIC [15]: 0.195 µg/mL (≈ 0.555 µM)
MIC [16]: 3.13 µg/mL (≈ 8.91 µM)
MIC [17]: 0.78 µg/mL (≈ 2.22 µM)
MIC [18]: 25 µg/mL (≈ 71.2 µM)
MIC [19]: 6.25 µg/mL (≈ 17.8 µM)
MIC [20]: 0.098 µg/mL (≈ 0.279 µM)
MIC [21]: 0.098 µg/mL (≈ 0.279 µM)
SMILES: CCn1cc(C(=O)O)c(=O)c2cc(F)c(N3CCNC(C)C3)c(F)c21 (stereo not given) [LOMEFLOXACIN]

SMILES: CCn1cc(C(=O)O)c(=O)c2ccc(C)nc21 [NALIDIXIC ACID]
Activity [23]: 60%
